Structures are written as SMILES.

Broadly, the IC50 is the concentration needed to halve the response being measured.

The test system of assay [1] is human chronic myeloid leukemia K562 cell. Kind of assay: Cytotoxic action on cancer cells (WST-8, 96 hr). Type of assay: cell-based. The note with it: 96 hr culture. The method in brief:
(§1)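 Growth medium was 10% FBS/RPMI1640 throughout, with compound added after an overnight culture at 37° C. Survival was scored by WST-8 relative to untreated cells.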
(Tetrazolium dyes change colour on reduction, which living cells bring about.)

Assay [2] relates to human small cell lung cancer NCI-H82 cell. Briefly: Cytotoxic action on cancer cells (WST-8, 96 hr). The assay is classed as cell-based. The note with it: 96 hr culture. The procedure, abridged: as §1
The test system of assay [3] is human bladder cancer 5637 cell. Briefly: Cytotoxic action on cancer cells (WST-8, 96 hr). Type of assay: cell-based. The conditions noted are these: 5637 cells, 96 hr culture. The method in brief:
as §1

In assay [4] the test system is human diffuse large B-cell lymphoma SU-DHL-6 cell. Briefly: Cytotoxic action on cancer cells (WST-8, 96 hr). Type of assay: cell-based. The note with it: SU-DHL-6 cells, 96 hr culture. The method in brief:
as §1

Assay [5] deals with human ovarian cancer A2780 cell. Kind of assay: Cytotoxic action on cancer cells (WST-8, 96 hr). The assay is classed as cell-based. The note with it: 96 hr culture. The procedure, abridged: as §1
Assay [6] deals with human prostate cancer LNCaP cells. Kind of assay: Cytotoxic action on cancer cells (WST-8, 96 hr). Type of assay: cell-based. The conditions noted are these: Homo sapiens, LNCaP, 96 h, read-out: LNCaP cytotoxic activity: IC50. The procedure, abridged: as §1
Assay [7] deals with human multiple myeloma MM.1S cell. Briefly: Cytotoxic action on cancer cells (WST-8, 96 hr). Type of assay: cell-based. The note with it: MM1.S, MM.1S cells, 96 hr culture. The method in brief: as §1
Assay [8] relates to human non-small cell lung cancer NCI-H1975 cell. Kind of assay: Cytotoxic action on cancer cells (WST-8, 96 hr). The note with it: 96 hr culture. Type of assay: cell-based. The method in brief:
as §1

For assay [9], the system named is human triple negative breast cancer MDA-MB-231 cell. Kind of assay: Cytotoxic action on cancer cells (WST-8, 96 hr). Type of assay: cell-based. The note with it: MDA-MB-231 cells, 96 hr culture. The method in brief:
as §1

The test system of assay [10] is human liver cancer Hep G2 cell. Briefly: Cytotoxic action on cancer cells (WST-8, 96 hr). The assay is classed as cell-based. The conditions noted are these: HepG2, 96 hr culture. The procedure, abridged:
as §1

The subject of assay [11] is human colorectal cancer HCT116 cell. Kind of assay: Cytotoxic action on cancer cells (WST-8, 96 hr). Type of assay: cell-based. The note with it: HCT-116, 96 hr culture. The method in brief: as §1
Assay [12] concerns human breast cancer ZR-75-1 cell. Kind of assay: Cytotoxic action on cancer cells (WST-8, 96 hr). Type of assay: cell-based. The note with it: ZR-75-1 cells, 96 hr culture. The procedure, abridged:
as §1

Assay [13] relates to human castration-resistant prostate cancer PC-3 cell. Briefly: Cytotoxic action on cancer cells (WST-8, 96 hr). Type of assay: cell-based. The note with it: PC-3 cells (printed P0-3 in table), 96 hr culture. The procedure, abridged:
as §1

Assay [14] relates to human pancreatic cancer AsPC-1 cell. Kind of assay: Cytotoxic action on cancer cells (WST-8, 96 hr). The note with it: ASPC1, AsPC-1 cells, 96 hr culture. Type of assay: cell-based. The procedure, abridged:
as §1

Assay [15] relates to human Burkitt lymphoma Raji cell. Briefly: Cytotoxic action on cancer cells (WST-8, 96 hr). Type of assay: cell-based. The note with it: 96 hr culture. The method in brief:
as §1

For assay [16], the system named is human acute myeloid leukemia MV-4-11 cell. Briefly: Cytotoxic action on cancer cells (WST-8, 96 hr). The note with it: MV4-11, MV-4-11 cells, 96 hr culture. Type of assay: cell-based. The procedure, abridged:
as §1

The test system of assay [17] is human gastric cancer SNU-16 cell. Briefly: Cytotoxic action on cancer cells (WST-8, 96 hr). The assay is classed as cell-based. The note with it: SNU-16 cells, 96 hr culture. The method in brief:
as §1

Assay [18] deals with human uterine sarcoma MES-SA cell. Briefly: Cytotoxic action on cancer cells (WST-8, 96 hr). Type of assay: cell-based. The note with it: 96 hr culture. The procedure, abridged: as §1
The test system of assay [19] is human glioma U-87 MG cell. Briefly: Cytotoxic action on cancer cells (WST-8, 96 hr). The assay is classed as cell-based. The note with it: U-87 MG cells, 96 hr culture. The method in brief:
as §1

Assay [20] deals with human large cell lung cancer NCI-H460 cell. Briefly: Cytotoxic action on cancer cells (WST-8, 96 hr). Type of assay: cell-based. The conditions noted are these: 96 hr culture. The procedure, abridged:
as §1

Assay [21] concerns human T-cell leukemia Jurkat cells. Kind of assay: Cytotoxic action on cancer cells (WST-8, 96 hr). Type of assay: cell-based. The note with it: 96 hr culture. The method in brief: as §1
Assay [22] has as its system human acute myeloid leukemia MV-4-11 cell transplanted mouse. Kind of assay: Antitumor effect in human acute myeloid leukemia MV-4-11 cell transplanted mouse. The assay is classed as in vivo. The conditions noted are these: MV4-11, iv, 360 h, read-out: tumor growth inhibitory rate. The procedure:
The in vivo antitumor effect of the compound of the present invention was studied using human acute myeloid leukemia MV-4-11 cell transplanted mouse. MV-4-11 cells were subcutaneously transplanted into the inguinal region of male, 6-week-old BALB/c nude mouse (5×10^6 cells/mouse). The compound of the present invention was administered into the tail vein on days 1, 5, 9, 13 from the time point when the assumed tumor volume determined from 1/2ab^2 (a is major axis and b is minor axis of tumor) reached about 100 mm^3 (day 1). The control group was administered with a solvent, 10% hydroxypropyl-β-cyclodextrin solution. On day 15, the tumor was isolated, the weight was measured, and the tumor growth inhibitory rate IR (%) was calculated by the following formula. tumor growth inhibitory rate IR (%)=(1−tumor weight of administration group/tumor weight of nonadministration control group)×100

Take `COC(=O)C[C@@H]1N=C(c2ccc(N3CC[C@@H](Oc4ccc5oc(C(=O)N[C@H](C(=O)N6C[C@H](O)C[C@H]6C(=O)N[C@@H](C)c6ccc(-c7scnc7C)cc6)C(C)(C)C)cc5c4)C3)cc2)c2c(sc(C)c2C)-n2c(C)nnc21` [Example 142, methyl [(6S)-4-{4-[(3R)-3-{[2-({(2S)-1-[(2S,4R)-4-hydroxy-2-({(1S)-1-[4-(4-methyl-1,3-thiazol-5-yl)phenyl]ethyl}carbamoyl)pyrrolidin-1-yl]-3,3-dimethyl-1-oxobutan-2-yl}carbamoyl)-1-benzofuran-5-yl]oxy}pyrrolidin-1-yl]phenyl}-2,3,9-trimethyl-6H-thieno[3,2-f][1,2,4]triazolo[4,3-a][1,4]diazepin-6-yl]acetate]: the IC50 in assay [1] is 2.1 nM; in assay [2], 5.9 nM; in assay [3], 0.34 nM; in [4], 0.93 nM; in assay [5] it was 0.27 nM; in assay [6] it was 0.3 nM. In addition, the IC50 in [7] was 0.23 nM; in assay [8] it was 1.8 nM; in assay [9], 0.98 nM; in assay [10] it was 7.4 nM; in [11] it was 3.9 nM; in assay [12], 0.49 nM. Moreover, the concentration for half-maximal inhibition (IC50) came to 0.34 nM in [13]; 5.7 nM in assay [14]; 0.71 nM in assay [15]; 0.041 nM in [16]; 0.55 nM in [17]; 1.6 nM in [18]. Further, the 50% inhibitory concentration (IC50) worked out at 4 nM in [19], 11 nM in [20] and 0.36 nM in assay [21]. The inhibition in vivo at 3 mg/kg in [22] amounted to 97.4%.
`COC(=O)C[C@@H]1N=C(c2ccc(-c3ccc(OCC(=O)N[C@H](C(=O)N4C[C@H](O)C[C@H]4C(=O)N[C@@H](C)c4ccc(-c5scnc5C)cc4)C(C)(C)C)c(C#N)c3)cc2)c2c(sc(C)c2C)-n2c(C)nnc21` [Example 9, methyl [(6S)-4-{3′-cyano-4′-[2-({(2S)-1-[(2S,4R)-4-hydroxy-2-({(1S)-1-[4-(4-methyl-1,3-thiazol-5-yl)phenyl]ethyl}carbamoyl)pyrrolidin-1-yl]-3,3-dimethyl-1-oxobutan-2-yl}amino)-2-oxoethoxy][1,1′-biphenyl]-4-yl}-2,3,9-trimethyl-6H-thieno[3,2-f][1,2,4]triazolo[4,3-a][1,4]diazepin-6-yl]acetate]: the IC50 stood at 2.2 nM in assay [1]; 15 nM in assay [2]; 0.45 nM in assay [3]; 0.57 nM in assay [4]; 0.16 nM in [5]; 0.16 nM in assay [6]. Besides, the IC50 is 0.14 nM in assay [7]; 3.7 nM in assay [8]; 5.7 nM in [9]; 33 nM in [10]; 4.7 nM in assay [11]; 0.96 nM in assay [12]. Besides, the concentration for half-maximal inhibition (IC50) was found to be 1 nM in assay [13]; 30 nM in assay [14]; 1.9 nM in assay [15]; 0.015 nM in assay [16]; 3 nM in assay [17]; 2.6 nM in assay [18]. Besides, the IC50 was 9.1 nM in assay [19], 24 nM in assay [20] and 1.2 nM in [21]. Besides, the inhibition in vivo at 1 mg/kg in assay [22] was determined as 98.5%. For the same molecule, the inhibition in vivo at 5 mg/kg in assay [22] amounted to 98.4%.
As to `COC(=O)C[C@@H]1N=C(c2ccc(-c3ccc(C(=O)N[C@H](C(=O)N4C[C@H](O)C[C@H]4C(=O)N[C@@H](C)c4ccc(-c5scnc5C)cc4)C(C)(C)C)c(Cl)c3)cc2)c2c(sc(C)c2C)-n2c(C)nnc21` [Example 157, methyl {(6S)-4-[3′-chloro-4′-({(2S)-1-[(2S,4R)-4-hydroxy-2-({(1S)-1-[4-(4-methyl-1,3-thiazol-5-yl)phenyl]ethyl}carbamoyl)pyrrolidin-1-yl]-3,3-dimethyl-1-oxobutan-2-yl}carbamoyl)[1,1′-biphenyl]-4-yl]-2,3,9-trimethyl-6H-thieno[3,2-f][1,2,4]triazolo[4,3-a][1,4]diazepin-6-yl}acetate], the IC50 was 1.2 nM in assay [1]; 4.5 nM in [2]; 0.33 nM in [3]; 0.39 nM in [4]; 0.15 nM in assay [5]; 0.4 nM in [6]. Further, the concentration for half-maximal inhibition (IC50) in assay [7] amounted to 0.081 nM; in [8] it was 2.2 nM; in assay [9], 1.8 nM; in assay [10], 12 nM; in assay [11], 4.5 nM; in [12], 2 nM. Moreover, the 50% inhibitory concentration (IC50) in assay [13] worked out at 0.41 nM; in assay [14], 23 nM; in assay [15] it was 0.59 nM; in [16] it was 0.029 nM; in [17], 1.2 nM; in [18], 1.7 nM. Also, the IC50 was 18 nM in assay [19], 23 nM in assay [20] and 0.46 nM in assay [21]. Moreover, in [22], the inhibition in vivo at 1 mg/kg amounted to 95.5%. The inhibition in vivo at 3 mg/kg in [22] turned out to be 98.2%.

For the origin of these results see patent US11542273B2, “Amide compound having bet proteolysis-inducing action and medicinal application thereof” (MITSUBISHI TANABE PHARMA CORPORATION, priority 2018, dated 2023).
